One data set deals with human PBMCs. As to the kind of experiment: Cytotoxicity (CC50) in human PBMCs. Format: cell-based.
Data set [1] deals with HIV-1. Conditions: for EC50: HIV infected human PBMCs.
Procedure: (§1) Antiviral activities were determined in HIV infected human PBMCs.
Data set [2] deals with SARS-CoV-2. As to the kind of experiment: SARS-CoV-2 infection assay in Huh7.5 cells, nucleocapsid immunofluorescence (Example 6). Format: cell-based. Conditions: MOI 0.1, 48 hours.
The next data set has as its system HCoV-229E. The class given is cell-based, human Coronavirus 229E.
Data set [3] deals with SARS-CoV-2. As to the kind of experiment: SARS-CoV-2 infection assay in TMPRSS2-Vero cells, nucleocapsid immunofluorescence (Example 6). Format: cell-based. Conditions: MOI 0.01, 32 hours.
A further data set relates to Huh7.5 cells. As to the kind of experiment: Cytotoxicity in Huh7.5 cells, nuclei count (Example 6). The class given is cell-based, human. The conditions noted are these: Huh7.5 cells; read-out: CC50.
The test system of the next data set is TMPRSS2-Vero cells. Nature of the data set: Cytotoxicity in TMPRSS2-Vero cells, nuclei count (Example 6). The conditions noted are these: TMPRSS2-Vero cells; read-out: CC50. Format: cell-based.
For a further data set, the system named is Calu-3 cells. Nature of the data set: Cytotoxicity in Calu-3 cells, nuclei count or CellTiter-Glo (Example 6). The conditions noted are these: for select compounds up to 100 μM by CellTiter-Glo. Background: ATP-based viability assays read luminescence as a measure of living cells.
The next data set relates to Hep-2 cells. Nature of the data set: Cell viability assay for the RSV table (CC50). The class given is cell-based. The conditions noted are these: Hep-2 cells; read-out: CC50.
The next data set deals with SRV A2 strain of RSV. Nature of the data set: RSV infection in Hep-2 cells, CPE reduction. The conditions noted are these: RSV A2 in Hep-2 cells, 72 to 96 hours. The class given is cell-based, respiratory syncytial virus. The procedure: Methods: The SRV A2 strain of RSV was obtained from the ATCC. Ten thousand Hep-2 cells were seeded into each well of a 96-well plate in EMEM with 10% fetal bovine serum and 1% penicillin and streptomycin. Each well was inoculated with 100 TCID50 of virus. Two hours later wells were washed once with medium and serial four-fold dilutions of candidate antiviral drugs were added.

Data set [4] concerns SARS-CoV-2. As to the kind of experiment: SARS-CoV-2 infection assay in Calu-3 cells, nucleocapsid immunofluorescence (Example 6). Conditions: MOI 0.01, 44 hour.
A further data set concerns Huh7.5. Nature of the data set: Antiviral evaluation of cyanobenzyl analogs, Huh7.5. The class given is cell-based.
Another data set concerns Calu 3. Nature of the data set: Antiviral evaluation of cyanobenzyl analogs, Calu 3. Conditions: Calu 3. The class given is cell-based.
A further data set concerns HFF cells. Nature of the data set: Persistence of TFVpp in HFF cells after a 3 day exposure. The source says:
HFF cells were exposed to 1 micromolar drug for 3 days. At days 0, 1, 2, 4, 7, 14, 21, and 28, cells were trypsinized, counted, and processed for LC/MS measurement of TFVpp. Data were expressed at ftg/cell. nm=not meaningful; ftg—gemtogram.

Data set [5] can be described thus: Cytotoxicity (CC50) in human PBMCs. The class given is cell-based. Conditions: human PBMCs.
In data set [6] the test system is HIV-1. Nature of the data set: microbe, parasite or virus in culture. Conditions: Human immunodeficiency virus 1, PBMC.
Procedure: as §1
Setting [7] is: variation of the diester substituent of ODE-TFV, read-out: CC50.
The mark [8] stands for this setting: variation of the diester substituent of ODE-TFV.
[9] abbreviates: HFF cells, 1 micromolar drug for 3 days.

Like-named read-outs stand apart in the source and are kept apart here.

One may read the CC50 as the concentration giving 50% cytotoxicity. Usually EC50 stands for the concentration needed to bring the measured effect to its halfway point. `CCCCCCCCCCCCCCCCCCOCCOP(=O)(CO[C@H](C)Cn1cnc2c(N)ncnc21)OCc1cccc(C)c1` (some centres unmarked) [3-methyl benzyl]: the CC50 with human PBMCs (setting [7]) was determined as 3860 nM. In addition, in the data set with HIV-1 [1] (setting [8]), the “Selectivity Index” value is given as 1210 and the 50% effective concentration (EC50) came out at 3.2 nM.
A word on the EC90: it is the point of the concentration-response curve where the effect stands at 90%. With `CCCCCCCCCCCCCCCCOC[C@H](COP(=O)(O)OC[C@H]1O[C@@](C#N)(c2ccc3c(N)ncnn23)[C@H](O)[C@@H]1O)OCc1ccc(OC)c(F)c1` [Compound 15c, 1-O-Hexadecyl-2-O-(3-fluoro, 4-methoxybenzyl)-sn-glyceryl-phospho-RVn], the concentration for a half-maximal effect (EC50) with SARS-CoV-2 [2] is 49 nM; in the data set on HCoV-229E, 360 ± 54 nM; in the data set on SARS-CoV-2 [3] it was 397 nM; in the data set on SRV A2 strain of RSV it was 34 nM; with SARS-CoV-2 [4] it was 51 ± 6 nM. Further, the EC90 was found to be 113 nM in the data set on SARS-CoV-2 [2]; 1120 ± 100 nM with HCoV-229E; 869 nM in the data set with SARS-CoV-2 [3]; 68 nM in the data set on SRV A2 strain of RSV; 221 ± 58 nM with SARS-CoV-2 [4]. In addition, the CC50 with Huh7.5 cells was > 20000 nM; in the data set on TMPRSS2-Vero cells it was > 20000 nM; in the data set on Calu-3 cells, 75600 ± 3960 nM; with Hep-2 cells, 20600 nM; with MRC-5 cells it was > 50000 nM.
In the case of `CCCCCCCCCCCCCCCCCCOC[C@H](COP(=O)(O)OC[C@H]1O[C@@](C#N)(c2ccc3c(N)ncnn23)[C@H](O)[C@@H]1O)OCc1ccc(OC)c(F)c1` [Compound 15j, 1-O-Octadecyl-2-O-(3-fluoro-4-methoxy-benzyl)-sn-glyceryl-phospho-RVn], the 50% effective concentration (EC50) stood at 56 nM with SARS-CoV-2 [2], 74 ± 10 nM in the data set on HCoV-229E, 174 nM in the data set with SARS-CoV-2 [3] and 10 nM with SRV A2 strain of RSV. Besides, the concentration for an effect of 90% (EC90) came to 222 nM with SARS-CoV-2 [2], 170 ± 14 nM in the data set on HCoV-229E, 341 nM with SARS-CoV-2 [3] and 19 nM in the data set with SRV A2 strain of RSV. For the same compound, the CC50 in the data set with Huh7.5 cells is > 20000 nM; in the data set with TMPRSS2-Vero cells, > 20000 nM; in the data set on Calu-3 cells, 50600 ± 5420 nM; in the data set on Hep-2 cells it was 9600 nM; in the data set with MRC-5 cells it was > 50000 nM.
`CCCCCCCC/C=C\CCCCCCCCOC[C@H](COP(=O)(O)OC[C@H]1O[C@@](C#N)(c2ccc3c(N)ncnn23)[C@H](O)[C@@H]1O)OCc1ccc(OC)c(F)c1` [Compound 15m, 1-O-Oleyl-2-O-(3-fluoro, 4-methoxybenzyl)-sn-glyceryl-phospho-RVn]: the half-maximal effective concentration (EC50) is 54 nM in the data set on SARS-CoV-2 [2], 60 ± 14 nM with HCoV-229E, 296 nM in the data set with SARS-CoV-2 [3] and 5 nM in the data set with SRV A2 strain of RSV. The EC90 in the data set with SARS-CoV-2 [2] amounted to 102 nM; in the data set with HCoV-229E, 110 ± 20 nM; in the data set with SARS-CoV-2 [3], 524 nM; in the data set with SRV A2 strain of RSV it was 9.4 nM. For the same compound, the CC50 in the data set with Huh7.5 cells is > 20000 nM; in the data set with TMPRSS2-Vero cells, > 20000 nM; with Calu-3 cells it was 58500 ± 6280 nM; in the data set on Hep-2 cells, 12500 nM; with MRC-5 cells, > 50000 nM.
On to `CCCCCCCCCCCCCCCCCCOC[C@H](COP(=O)(O)OC[C@H]1O[C@@](C#N)(c2ccc3c(N)ncnn23)[C@@H](O)C1O)OCc1ccc(C#N)cc1` (some centres unmarked) [OD(4-CN-Bn)G-P-RVn, 1-O-Octadecyl-2-O-(4-cyanobenzyl)-sn-glyceryl-phospho-RVn], for which the SI with Huh7.5 is on record as 1966; in the data set on Calu 3, 1400. Besides, the values for the EC50 in the data set with Huh7.5 (read-out: EC50) and in the data set on Calu 3 (read-out: EC50) were 24 ± 2 nM and 43 ± 13 nM, respectively. In addition, the 90% effect concentration (EC90) in the data set with Huh7.5 (read-out: EC90) turned out to be 70 ± 10 nM; in the data set with Calu 3 (read-out: EC90) it was 82 ± 22 nM.
As to `CCCCCCCCCCCCCCCCCCOCCOP(=O)(CO[C@H](C)Cn1cnc2c(N)ncnc21)OCc1ccc(C)cc1` (some centres unmarked) [ODE-4MeBN-TFV], in the data set on HFF cells, the “T1/2 of TFVpp” value was 3.1 and the “Tmax of TFVpp” value stood at 0 h. The same compound yielded a CC50 in the data set with human PBMCs of 3410 nM. In addition, in the data set with HIV-1 [1] (setting [8]), the “Selectivity Index” value was determined as 1620 and it took 2.1 nM to reach a half-maximal effect (EC50).
In turn, `CCCCCCCCCCCCCCCCCCOCCOP(=O)(OCc1ccccc1)OC[C@H]1O[C@@H](n2cc(F)c(N)nc2=O)CS1` (some centres unmarked) [ODE-Bn-P-Emtricitabine, Octadecyloxyethyl benzyl-phospho-emtricitabine] registered a CC50 in data set [5] of 54700 ± 45300 nM. In addition, in the data set with HIV-1 [6], the EC50 was determined as 18.3 ± 8.7 nM. This compound displayed a Selectivity Index with HIV-1 [1] (CC50/EC50) of 2989.
The matching figures for `CCCCCCCCCCCCCCCCCCOCCOP(=O)(CO[C@H](C)Cn1cnc2c(N)ncnc21)OCc1ccccc1` (some centres unmarked) [ODE-Bn-TFV, Octadecyloxyethyl benzyl tenofovir]: 8720 nM, 1.7 ± 1.5 nM and 5130.
In the case of `CCCCCCCCCCCCCCCCCCOCCOP(=O)(CO[C@H](C)Cn1cnc2c(N)ncnc21)OCC` (some centres unmarked) [ODE-Et-TFV], in the data set on HFF cells (setting [9]), the “Cmax of TFVpp” value is 0.91 ftg/cell and the “Tmax of TFVpp” value worked out at 0 h. For the same compound, the CC50 in the data set with human PBMCs (setting [7]) amounted to 5360 nM. In addition, in the data set on HIV-1 [1] (setting [8]), the “Selectivity Index” value was found to be 95 and the half-maximal effective concentration (EC50) stood at 57 nM.
On to `CCCCCCCCCCCCCCCCCCOCCOP(=O)(CO[C@H](C)Cn1cnc2c(N)ncnc21)OC` (some centres unmarked) [ODE-Me-TFV], for which, in the data set on HFF cells (setting [9]), the “Cmax of TFVpp” value amounted to 9.3 ftg/cell, the “T1/2 of TFVpp” value is recorded as 2.0, the “T1/10 of TFVpp” value is given as 11.3 and the “Tmax of TFVpp” value was 0 h. In addition, in the data set on human PBMCs (setting [7]), the CC50 is 2980 nM. In addition, in the data set with HIV-1 [1] (setting [8]), the “Selectivity Index” value was 677 and the concentration giving a half-maximal response (EC50) amounted to 5.2 nM.
In turn, `CCCCCCCCCCCCCCCCCCOCCOP(=O)(O)OC[C@H]1O[C@@H](n2cc(F)c(N)nc2=O)CS1` [ODE-P-Emtricitabine, Octadecyloxyethyl-phospho-emtricitabine] came in with a CC50 in data set [5] of 35600 ± 12900 nM. Besides, the EC50 in the data set on HIV-1 [6] turned out to be 9.6 ± 3.1 nM. The Selectivity Index with HIV-1 [1] (CC50/EC50) turned out to be 3708.
Take `CCCCCCCCCCCCCCCCCCOCCOP(=O)(O)CO[C@H](C)Cn1cnc2c(N)nc(N)nc21` [ODE-PMPDAP]: the CC50 in the data set on human PBMCs (human PBMCs, read-out: CC50) was 7000 ± 7100 nM. In the data set on HIV-1 [1] (CC50/EC50), the Selectivity Index is given as 77,700. The EC50 with HIV-1 [1] is 0.09 ± 0.05 nM.
On to `CCCCCCCCCCCCCCCCCCOCCOP(=O)(CO[C@H](C)Cn1cnc2c(N)ncnc21)Oc1ccccc1` (some centres unmarked) [ODE-Ph-TFV], for which, in the data set on HFF cells (setting [9]), the “Cmax of TFVpp” value is given as 8.1 ftg/cell, the “T1/2 of TFVpp” value is listed as 3.0, the “T1/10 of TFVpp” value is 15.1 and the “Tmax of TFVpp” value came out at 24 h. Moreover, the CC50 with human PBMCs (setting [7]) amounted to 3930 nM. In the data set with HIV-1 [1] (setting [8]), the “Selectivity Index” value is given as 1640 and the EC50 was 2.4 nM.
The compound `CCCCCCCC/C=C\CCCCCCCCOCCOP(=O)(O)CO[C@H](C)Cn1cnc2c(N)nc(N)nc21` [OLE-PMPDAP, Oleyloxyethyl 9-(R)-[(2-phosphonomethoxy)propyl]-2,6-diaminopurine] had a CC50 in data set [5] of 15000 ± 12300 nM. The compound also had a concentration giving a half-maximal response (EC50) in the data set with HIV-1 [6] of 0.1 ± 0.03 nM. In addition, the Selectivity Index in the data set with HIV-1 [1] (CC50/EC50) is 150,000.

Source of the values: patent publication US12594292B2, “Antiviral prodrugs, intermediate-and long-acting formulations and methods” (priority 2022, dated 2026).
